Patent US12692254B2, “Benzimidazole inhibitors of PAD enzymes” (BRISTOL-MYERS SQUIBB COMPANY, priority 2018, dated 2026)

Target: human PAD4 (hPAD4) (Homo sapiens, UniProt Q9UM07)
Assay: RFMS human PAD4 functional assay (rapid-fire mass spectrum)
Type: biochemical
Details: 5 nM hPAD4 enzyme, 250 μM BAEE, 50 μM Calcium; 30 min preincubation, 90 min reaction at 37° C.
Procedure, shortened: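 PAD4 (10 nM) preincubated 30 min with compound (top final 50 μM), then BAEE substrate added in pH 7.5 HEPES buffer with DTT, 50 μM calcium, TPEN; 90 min at 37° C. After TCA quench, citrulline derivatized with phenyl glyoxal (4 mM final, 30 min, 37° C) and quantified by RapidFire MS against internal standard.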

Chain of human PAD4 (hPAD4) (Q9UM07 whole entry): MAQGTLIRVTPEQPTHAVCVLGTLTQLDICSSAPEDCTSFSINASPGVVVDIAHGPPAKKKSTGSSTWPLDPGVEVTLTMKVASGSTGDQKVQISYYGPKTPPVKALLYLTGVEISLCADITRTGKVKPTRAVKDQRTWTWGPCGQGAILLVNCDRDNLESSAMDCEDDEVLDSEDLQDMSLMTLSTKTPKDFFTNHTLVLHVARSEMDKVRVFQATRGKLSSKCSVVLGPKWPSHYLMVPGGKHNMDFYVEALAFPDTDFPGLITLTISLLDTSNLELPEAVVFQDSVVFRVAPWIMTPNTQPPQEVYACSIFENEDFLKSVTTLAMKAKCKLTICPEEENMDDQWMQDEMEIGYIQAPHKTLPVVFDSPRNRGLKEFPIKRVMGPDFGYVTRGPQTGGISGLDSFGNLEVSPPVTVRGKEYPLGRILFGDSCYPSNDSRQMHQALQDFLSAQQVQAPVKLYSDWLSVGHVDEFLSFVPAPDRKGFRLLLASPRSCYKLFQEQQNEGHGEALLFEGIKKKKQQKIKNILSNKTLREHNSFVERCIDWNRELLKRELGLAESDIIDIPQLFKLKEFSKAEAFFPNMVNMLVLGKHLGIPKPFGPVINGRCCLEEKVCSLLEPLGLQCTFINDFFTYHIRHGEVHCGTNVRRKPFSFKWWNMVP

With `COc1cc(C(=O)N2C[C@H]3CC[C@@H]2[C@@H]3N)cc2nc(-c3cc4cccnc4n3CC3CC3)n(Cc3cnn(C)c3)c12` [Example 243, (1R,4R,7R)-2-{2-[1-(cyclopropylmethyl)-1H-pyrrolo[2,3-b]pyridin-2-yl]-7-methoxy-1-[(1-methyl-1H-pyrazol-4-yl)methyl]-1H-1,3-benzodiazole-5-carbonyl}-2-azabicyclo[2.2.1]heptan-7-amine] the IC50 was 33 nM.
In the case of `COc1cc(C(=O)N2CC3CCC2[C@@H]3N)cc2nc(-c3cc4ccccc4n3CC3CC3)n(CC3CN(C(=O)c4cnc(Cl)s4)C3)c12` (stereo partly drawn) [Example 414, (7R)-2-(1-{[1-(2-chloro-1,3-thiazole-5-carbonyl)azetidin-3-yl]methyl}-2-[1-(cyclopropylmethyl)-1H-indol-2-yl]-7-methoxy-1H-1,3-benzodiazole-5-carbonyl)-2-azabicyclo[2.2.1]heptan-7-amine], the IC50 is reported as 35 nM.
Work on `COc1cc(C(=O)N2C[C@H](N)C[C@@H](F)C2)cc2nc(-c3cc4cccnc4n3CC3CC3)n(Cc3cnn(-c4ccc(C#N)cn4)c3)c12` [Example 386, 6-[4-({5-[(3R,5R)-3-amino-5-fluoropiperidine-1-carbonyl]-2-[1-(cyclopropylmethyl)-1H-pyrrolo[2,3-b]pyridin-2-yl]-7-methoxy-1H-1,3-benzodiazol-1-yl}methyl)-1H-pyrazol-1-yl]pyridine-3-carbonitrile] yielded an IC50 of 42 nM.
With `COc1cc(C(=O)N2C[C@H]3CC[C@@H]2[C@@H]3N)cc2nc(-c3cc4cccnc4n3C)n(CC3CN(c4cncc(C#N)n4)C3)c12` [Example 40, 6-[3-({5-[(1R,4R,7R)-7-amino-2-azabicyclo[2.2.1]heptane-2-carbonyl]-7-methoxy-2-{1-methyl-1H-pyrrolo[2,3-b]pyridin-2-yl}-1H-1,3-benzodiazol-1-yl}methyl)azetidin-1-yl]pyrazine-2-carbonitrile] the IC50 was 98 nM.
With `COc1cc(C(=O)N2CC3CCC2[C@@H]3N)cc2nc(-c3cc4cccnc4n3CC3CC3)n(CC3CCN(c4ccnc(C)n4)CC3)c12` (stereo partly shown) [Example 219] the IC50 was 67 nM.
With `COc1cc(C(=O)N2C[C@H]3CC[C@@H]2[C@@H]3N)cc2nc(-c3cc4cccnc4n3C)n(C[C@H]3CCN(c4cncc(C#N)c4)C3)c12` [Example 215, 5[(3S)-3-({5-[(1R,4R,7R)-7-amino-2-azabicyclo[2.2.1]heptane-2-carbonyl]-7-methoxy-2-{1-methyl-1H-pyrrolo[2,3-b]pyridin-2-yl}-1H-1,3-benzodiazol-1-yl}methyl)pyrrolidin-1-yl]pyridine-3-carbonitrile] the IC50 was 148 nM.
For `C/C=C/C(=O)N1CC(Cn2c(-c3cc4cccnc4n3CC3CC3)nc3cc(C(=O)N4C[C@H]5CC[C@@H]4[C@@H]5N)cc(OC)c32)C1` [Example 116, (2E)-1-[3-({5-[(1R,4R,7R)-7-amino-2-azabicyclo[2.2.1]heptane-2-carbonyl]-2-[1-(cyclopropylmethyl)-1H-pyrrolo[2,3-b]pyridin-2-yl]-7-methoxy-1H-1,3-benzodiazol-1-yl}methyl)azetidin-1-yl]but-2-en-1-one], the IC50 was 59 nM.
`COc1cc(C(=O)N2C[C@H]3CC[C@@H]2[C@@H]3N)cc2nc(-c3cc4ccccc4n3CC3CC3)n(CC3CN(C(=O)c4ccc(C#N)cc4F)C3)c12` [Example 163, 4-[3-({5-[(1R,4R,7R)-7-amino-2-azabicyclo[2.2.1]heptane-2-carbonyl]-2-[1-(cyclopropylmethyl)-1H-indol-2-yl]-7-methoxy-1H-1,3-benzodiazol-1-yl}methyl)azetidine-1-carbonyl]-3-fluorobenzonitrile] showed an IC50 of 26 nM.
In the case of `COc1cc(C(=O)N2CC3CCC2[C@@H]3N)cc2nc(-c3cc4ccc(C(C)O)cc4n3CC3CC3)n(CC3CN(C(=O)c4ccccc4)C3)c12` (stereo partly drawn) [Example 521, l-(2-{5-[(7R)-7-amino-2-azabicyclo[2.2.1]heptane-2-carbonyl]-1-[(1-benzoylazetidin-3-yl)methyl]-7-methoxy-1H-1,3-benzodiazol-2-yl}-1-(cyclopropylmethyl)-1H-indol-6-yl)ethan-1-ol], the IC50 is reported as 86 nM.
`COc1cc(C(=O)N2C[C@H]3CC[C@@H]2[C@@H]3N)cc2nc(-c3cc4ccc(Cl)cc4n3C)n(CC3CN(c4ccnc(C)n4)C3)c12` [Example 45, (1R,4R,7R)-2-[2-(6-chloro-1-methyl-1H-indol-2-yl)-7-methoxy-1-{[1-(2-methylpyrimidin-4-yl)azetidin-3-yl]methyl}-1H-1,3-benzodiazole-5-carbonyl]-2-azabicyclo[2.2.1]heptan-7-amine] gave an IC50 of 114 nM.
In the case of `COc1cc(C(=O)N2C[C@H](N)C[C@@H](F)C2)cc2nc(-c3cc4cccnc4n3CC3CC3)n(Cc3cnn(-c4cnccn4)c3)c12` [Example 397, (3R,5R)-1-{2-[1-(cyclopropylmethyl)-1H-pyrrolo[2,3-b]pyridin-2-yl]-7-methoxy-1-{[1-(pyrazin-2-yl)-1H-pyrazol-4-yl]methyl}-1H-1,3-benzodiazole-5-carbonyl}-5-fluoropiperidin-3-amine], the IC50 is reported as 53 nM.
Compound `COc1cc(C(=O)N2C[C@H](N)CC[C@@H]2C)cc2nc(-c3cc4ccccc4n3CC3CC3)n(Cc3cnn(C)c3)c12` [Example 251, ((2S,5R)-5-amino-2-methylpiperidin-1-yl)(2-(1-(cyclopropylmethyl)-1H-indol-2-yl)-7-methoxy-1-((1-methyl-1H-pyrazol-4-yl)methyl)-1H-benzo[d]imidazol-5-yl)methanone] has an IC50 of 48 nM.
`COc1cc(C(=O)N2C[C@H](N)C[C@@H](F)C2)cc2nc(-c3cc4ccccc4n3CC3CC3)n(Cc3cn(C)nc3C)c12` [Example 512, (3R,5R)-1-{2-[1-(cyclopropylmethyl)-1H-indol-2-yl]-1-[(1,3-dimethyl-1H-pyrazol-4-yl)methyl]-7-methoxy-1H-1,3-benzodiazole-5-carbonyl}-5-fluoropiperidin-3-amine] gave an IC50 of 373 nM.
For `COc1cc(C(=O)N2CC3CCC2[C@@H]3N)cc2nc(-c3cc4ccccc4n3CC3CC3)n(Cc3cnn(-c4cccnc4O)c3)c12` (stereo partly drawn) [Example 384, 3-[4-({5-[(7R)-7-amino-2-azabicyclo[2.2.1]heptane-2-carbonyl]-2-[1-(cyclopropylmethyl)-1H-indol-2-yl]-7-methoxy-1H-1,3-benzodiazol-1-yl}methyl)-1H-pyrazol-1-yl]pyridin-2-ol], the IC50 was 41 nM.
`CCn1cc(Cn2c(-c3cc4ccccc4n3CC3CC3)nc3cc(C(=O)N4CC5CCC4[C@@H]5N)cc(OC)c32)cn1` (stereo partly drawn) [Example 481, (7R)-2-{2-[1-(cyclopropylmethyl)-1H-indol-2-yl]-1-[(1-ethyl-1H-pyrazol-4-yl)methyl]-7-methoxy-1H-1,3-benzodiazole-5-carbonyl}-2-azabicyclo[2.2.1]heptan-7-amine] was tested, and the IC50 was 20 nM.
`COc1cc(C(=O)N2C[C@H]3CC[C@@H]2[C@@H]3N)cc2nc(-c3cc4cccnc4n3CC3CC3)n(CC3CN(S(=O)(=O)C(C)C)C3)c12` [Example 335, (1R,4R,7R)-2-{2-[1-(cyclopropylmethyl)-1H-pyrrolo[2,3-b]pyridin-2-yl]-7-methoxy-1-{[1-(propane-2-sulfonyl)azetidin-3-yl)methyl}-1H-1,3-benzodiazole-5-carbonyl}-2-azabicyclo[2.2.1]heptan-7-amine] gave an IC50 of 245 nM.
Work on `COc1cc(C(=O)N2C[C@H]3CC[C@@H]2[C@@H]3N)cc2nc(-c3cc4cccnc4n3CC3CC3)n(C[C@@H]3CCN(c4ccnc(C)n4)C3)c12` [Example 216, (1R,4R,7R)-2-{2-[1-(cyclopropylmethyl)-1H-pyrrolo[2,3-b]pyridin-2-yl]-7-methoxy-1-{[(3R)-1-(2-methylpyrimidin-4-yl)pyrrolidin-3-yl]methyl}-1H-1,3-benzodiazole-5-carbonyl}-2-azabicyclo[2.2.1]heptan-7-amine] yielded an IC50 of 153 nM.
In the case of `COc1cc(C(=O)N2CC3CCC2[C@@H]3N)cc2nc(-c3cc4ccccc4n3CC3CC3)n(CC3CC(F)(F)C3)c12` (stereo partly drawn) [Example 478, (7R)-2-{2-[1-(cyclopropylmethyl)-1H-indol-2-yl]-1-[(3,3-difluorocyclobutyl)methyl]-7-methoxy-1H-1,3-benzodiazole-5-carbonyl}-2-azabicyclo[2.2.1]heptan-7-amine], the IC50 is reported as 48 nM.
`COc1cc(C(=O)N2C[C@H]3CC[C@@H]2[C@@H]3N)cc2nc(-c3cc4cccnc4n3CC3CC3)n(C[C@H]3CCN(c4cncc(C#N)n4)C3)c12` [Example 203, 6-[(3S)-3-({5-[(1R,4R,7R)-7-amino-2-azabicyclo[2.2.1]heptane-2-carbonyl]-2-[1-(cyclopropylmethyl)-1H-pyrrolo[2,3-b]pyridin-2-yl]-7-methoxy-1H-1,3-benzodiazol-1-yl}methyl)pyrrolidin-1-yl]pyrazine-2-carbonitrile] was tested, and the IC50 was 23 nM.
For `COc1cc(C(=O)N2CC3CCC2[C@@H]3N)cc2nc(-c3cc4ccccc4n3CC3CC3)n(Cc3cnn(-c4ncccn4)c3)c12` (stereo partly drawn) [Example 402, (7R)-2-{2-[1-(cyclopropylmethyl)-1H-indol-2-yl]-7-methoxy-1-{[1-(pyrimidin-2-yl)-1H-pyrazol-4-yl]methyl}-1H-1,3-benzodiazole-5-carbonyl}-2-azabicyclo[2.2.1]heptan-7-amine], the IC50 was 66 nM.
For `COc1cc(C(=O)N2C[C@H]3CC[C@@H]2[C@@H]3N)cc2nc(-c3cc4cccnc4n3CC3CC3)n(CC3CN(C(=O)c4ccnc(Cl)n4)C3)c12` [Example 126, (1R,4R,7R)-2-(1-{[1-(2-chloropyrimidine-4-carbonyl)azetidin-3-yl]methyl}-2-[1-(cyclopropylmethyl)-1H-pyrrolo[2,3-b]pyridin-2-yl]-7-methoxy-1H-1,3-benzodiazole-5-carbonyl)-2-azabicyclo[2.2.1]heptan-7-amine], the IC50 was 108 nM.
`COc1cc(C(=O)N2C[C@H]3CC[C@@H]2[C@@H]3N)cc2nc(-c3cc4cccnc4n3CC3CC3)n(CC3CN(c4ncncc4C#N)C3)c12` [Example 37, 4-[3-({5-[(1R,4R,7R)-7-amino-2-azabicyclo[2.2.1]heptane-2-carbonyl]-2-[1-(cyclopropylmethyl)-1H-pyrrolo[2,3-b]pyridin-2-yl]-7-methoxy-1H-1,3-benzodiazol-1-yl}methyl)azetidin-1-yl]pyrimidine-5-carbonitrile] showed an IC50 of 93 nM.
